Measured values published in ChEMBL document CHEMBL1135137, “Synthesis and pharmacological characterization of a potent, orally active p38 kinase inhibitor” (Bioorg Med Chem Lett, 2002).
≈ marks a conversion by molar mass, not a printed value. One block for each compound: values may come before it.

Legend:
[1] = target: Mitogen-activated protein kinase 14 (Homo sapiens, UniProt Q16539); test: Inhibitory activity against Mitogen-activated protein kinase p38 alpha 2
SW1353 = test: TNF-alpha-induced IL-6 production in SW1353 cells; type: functional, cell-based; conditions: Homo sapiens
[2] = Solubility at pH 2.0; type: physicochemical; conditions: buffer
[3] = target: Tyrosine-protein kinase Fyn (Homo sapiens) (UniProt P06241); test: Inhibition of p59 Fyn tyrosine kinase at 10 uM
Sequence of Tyrosine-protein kinase Fyn (Homo sapiens) (P06241 2-537 limits assumed): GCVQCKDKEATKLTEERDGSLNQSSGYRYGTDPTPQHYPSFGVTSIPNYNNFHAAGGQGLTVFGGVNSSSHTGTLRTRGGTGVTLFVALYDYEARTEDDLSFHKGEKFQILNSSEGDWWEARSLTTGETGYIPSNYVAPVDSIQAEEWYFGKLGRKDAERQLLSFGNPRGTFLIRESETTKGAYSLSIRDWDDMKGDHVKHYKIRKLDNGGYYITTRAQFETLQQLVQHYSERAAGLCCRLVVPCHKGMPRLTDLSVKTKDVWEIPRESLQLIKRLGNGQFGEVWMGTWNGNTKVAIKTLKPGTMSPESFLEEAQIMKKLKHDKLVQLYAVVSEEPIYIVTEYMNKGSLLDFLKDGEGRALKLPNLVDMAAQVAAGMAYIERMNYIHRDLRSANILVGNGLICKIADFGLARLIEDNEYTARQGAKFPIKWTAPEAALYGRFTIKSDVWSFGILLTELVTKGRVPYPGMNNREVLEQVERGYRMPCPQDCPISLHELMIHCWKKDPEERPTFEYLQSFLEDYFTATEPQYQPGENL

Mus musculus [4] = test: Effect on LPS-induced TNF-alpha production in mice at 20 mg/kg peroral dose; type: functional; conditions: route oral
[5] = Solubility at pH 7.5; type: physicochemical; conditions: buffer
Mus musculus [6] = test: Percent inhibition of TNF-alpha-induced IL-6 production at 25 mg/kg peroral dose in mice; type: functional; conditions: route oral
[7] = target: Mitogen-activated protein kinase 11 (Homo sapiens, UniProt Q15759); test: Inhibition of Mitogen-activated protein kinase p38 beta
Sequence of Mitogen-activated protein kinase 11 (Q15759 whole entry): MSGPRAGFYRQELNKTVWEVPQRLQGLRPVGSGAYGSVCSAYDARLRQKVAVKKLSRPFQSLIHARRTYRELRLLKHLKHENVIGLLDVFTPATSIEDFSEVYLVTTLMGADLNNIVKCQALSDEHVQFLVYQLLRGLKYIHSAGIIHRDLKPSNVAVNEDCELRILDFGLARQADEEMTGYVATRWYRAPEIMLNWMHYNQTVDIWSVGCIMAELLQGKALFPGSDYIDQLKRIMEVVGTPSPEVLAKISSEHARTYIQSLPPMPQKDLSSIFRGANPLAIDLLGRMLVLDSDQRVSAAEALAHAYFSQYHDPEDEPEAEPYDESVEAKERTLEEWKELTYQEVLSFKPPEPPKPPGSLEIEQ

Mus musculus [8] = test: Effect on LPS-induced TNF-alpha production in mice at 10 mg/kg peroral dose; type: functional; conditions: route oral
Mus musculus [9] = test: Percent inhibition of TNF-alpha-induced IL-6 production at 50 mg/kg peroral dose in mice; type: functional; conditions: route oral
[10] = target: Mitogen-activated protein kinase 8 (Homo sapiens) (UniProt P45983); test: Inhibition of c-Jun N-terminal kinase 1 at 0.5 uM
[11] = target: Protein kinase C gamma type (Homo sapiens) (UniProt P05129); test: Inhibition of Protein kinase C gamma at 10 uM
Mus musculus [12] = test: Effect in murine model of arthritis onset in mice immunized with bovine type II collagen at 10 mg/kg; Histopathology in interstitial edema; type: functional
Mus musculus [13] = test: Percentage inhibition of LPS-induced TNF-alpha production in mice at 20 mg/kg peroral dose; type: functional; conditions: route oral
Mus musculus [14] = test: Effect in murine model of arthritis onset in mice immunized with bovine type II collagen at 10 mg/kg; Number of paws affected; type: functional
Mus musculus [15] = test: Effect in murine model of arthritis onset in mice immunized with bovine type II collagen at 3 mg/kg; Number of paws affected; type: functional
[16] = target: Tyrosine-protein kinase Lck (Homo sapiens) (UniProt P06239); test: Inhibition of p59 Lck tyrosine kinase at 10 uM
Sequence of Tyrosine-protein kinase Lck (Homo sapiens) (P06239 2-509 limits assumed): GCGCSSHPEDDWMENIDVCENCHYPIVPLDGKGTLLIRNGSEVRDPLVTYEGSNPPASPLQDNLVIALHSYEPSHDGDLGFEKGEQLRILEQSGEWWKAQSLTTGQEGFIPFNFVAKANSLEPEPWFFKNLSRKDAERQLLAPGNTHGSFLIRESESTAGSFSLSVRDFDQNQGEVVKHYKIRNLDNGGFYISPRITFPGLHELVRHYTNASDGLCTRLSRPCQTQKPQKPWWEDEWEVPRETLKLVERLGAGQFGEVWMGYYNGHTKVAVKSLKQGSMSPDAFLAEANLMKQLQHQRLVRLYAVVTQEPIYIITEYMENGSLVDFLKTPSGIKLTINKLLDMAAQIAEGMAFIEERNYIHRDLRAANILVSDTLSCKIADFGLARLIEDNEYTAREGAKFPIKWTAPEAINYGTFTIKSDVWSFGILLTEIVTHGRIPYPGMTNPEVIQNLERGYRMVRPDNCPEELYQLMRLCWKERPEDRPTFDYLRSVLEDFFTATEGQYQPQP

[17] = target: Protein kinase C beta type (Homo sapiens) (UniProt P05771); test: Inhibition of Protein kinase C beta at 10 uM
Sequence of Protein kinase C beta type (Homo sapiens) (P05771 2-671 limits assumed): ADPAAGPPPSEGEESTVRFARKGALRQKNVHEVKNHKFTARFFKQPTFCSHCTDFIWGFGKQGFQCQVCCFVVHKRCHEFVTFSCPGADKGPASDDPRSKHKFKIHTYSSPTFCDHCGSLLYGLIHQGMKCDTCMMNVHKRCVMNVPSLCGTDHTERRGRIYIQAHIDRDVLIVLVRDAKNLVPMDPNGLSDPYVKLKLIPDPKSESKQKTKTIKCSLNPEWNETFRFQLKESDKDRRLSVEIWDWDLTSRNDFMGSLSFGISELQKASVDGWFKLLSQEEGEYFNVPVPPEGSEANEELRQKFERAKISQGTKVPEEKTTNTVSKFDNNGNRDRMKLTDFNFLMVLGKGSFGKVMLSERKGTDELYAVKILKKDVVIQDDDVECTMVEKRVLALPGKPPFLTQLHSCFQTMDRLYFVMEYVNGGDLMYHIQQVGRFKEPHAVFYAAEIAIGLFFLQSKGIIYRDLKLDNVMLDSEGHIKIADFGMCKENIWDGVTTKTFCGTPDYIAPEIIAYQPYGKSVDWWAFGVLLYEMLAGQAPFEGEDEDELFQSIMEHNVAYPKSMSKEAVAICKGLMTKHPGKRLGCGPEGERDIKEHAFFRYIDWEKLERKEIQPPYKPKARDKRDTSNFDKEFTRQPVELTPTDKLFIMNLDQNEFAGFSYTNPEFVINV

[18] = target: Receptor tyrosine-protein kinase erbB-2 (Homo sapiens, UniProt P04626); test: Inhibition of human epidermal growth factor receptor-2
Sequence of Receptor tyrosine-protein kinase erbB-2 (P04626 whole entry): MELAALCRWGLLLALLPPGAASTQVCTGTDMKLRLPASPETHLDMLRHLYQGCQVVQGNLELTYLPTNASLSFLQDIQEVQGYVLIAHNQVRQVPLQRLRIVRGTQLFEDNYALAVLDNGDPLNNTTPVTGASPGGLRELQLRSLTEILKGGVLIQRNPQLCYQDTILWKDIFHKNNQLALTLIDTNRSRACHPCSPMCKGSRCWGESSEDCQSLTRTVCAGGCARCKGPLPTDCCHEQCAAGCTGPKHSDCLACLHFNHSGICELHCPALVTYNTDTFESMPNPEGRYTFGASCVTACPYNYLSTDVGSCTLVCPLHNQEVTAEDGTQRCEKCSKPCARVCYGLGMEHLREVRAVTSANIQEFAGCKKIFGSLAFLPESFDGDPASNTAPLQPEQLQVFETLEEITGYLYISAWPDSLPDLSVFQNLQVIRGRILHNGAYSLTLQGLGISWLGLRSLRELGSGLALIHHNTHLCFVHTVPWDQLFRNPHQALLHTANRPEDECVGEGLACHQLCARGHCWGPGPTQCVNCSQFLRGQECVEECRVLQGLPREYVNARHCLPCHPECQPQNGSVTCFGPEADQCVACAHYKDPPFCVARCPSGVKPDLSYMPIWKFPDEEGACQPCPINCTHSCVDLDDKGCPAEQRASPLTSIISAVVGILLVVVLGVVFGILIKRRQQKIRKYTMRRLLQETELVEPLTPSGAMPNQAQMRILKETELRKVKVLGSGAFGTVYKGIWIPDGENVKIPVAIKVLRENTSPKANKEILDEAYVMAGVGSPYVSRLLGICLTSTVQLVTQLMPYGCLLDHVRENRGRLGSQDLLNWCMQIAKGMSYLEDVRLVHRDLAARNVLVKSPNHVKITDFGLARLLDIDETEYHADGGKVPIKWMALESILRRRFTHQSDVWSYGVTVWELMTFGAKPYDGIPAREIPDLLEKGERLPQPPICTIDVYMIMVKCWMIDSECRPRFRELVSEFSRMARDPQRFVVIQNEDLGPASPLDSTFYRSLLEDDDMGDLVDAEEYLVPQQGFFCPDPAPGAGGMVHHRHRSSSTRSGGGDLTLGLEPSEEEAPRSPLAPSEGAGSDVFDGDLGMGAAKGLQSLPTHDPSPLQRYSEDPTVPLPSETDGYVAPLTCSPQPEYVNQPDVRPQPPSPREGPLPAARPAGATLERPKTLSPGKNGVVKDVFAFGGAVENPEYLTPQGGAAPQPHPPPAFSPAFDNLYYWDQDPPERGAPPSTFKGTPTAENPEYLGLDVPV

Mus musculus [19] = test: Effect in murine model of arthritis onset in mice immunized with bovine type II collagen at 10 mg/kg; Histopathology in inflammatory cell; type: functional
[20] = target: Protein kinase C alpha type (Homo sapiens) (UniProt P17252); test: Inhibition of Protein kinase C alpha at 10 uM
Mus musculus [21] = test: Percentage inhibition of LPS-induced TNF-alpha production in mice at 50 mg/kg peroral dose; type: functional; conditions: route oral
[22] = target: cAMP-dependent protein kinase (PKA) (Homo sapiens) (UniProt P22694+P17612+P22612); test: Inhibition of Protein kinase A at 10 uM; type: protein assay
Mus musculus [23] = test: Effect in murine model of arthritis onset in mice immunized with bovine type II collagen at 30 mg/kg; Histopathology in interstitial edema; type: functional
[24] = target: Epidermal growth factor receptor (Homo sapiens) (UniProt P00533); test: Inhibition of Epidermal growth factor receptor at 10 uM
[25] = target: Mitogen-activated protein kinase 3 (Homo sapiens) (UniProt P27361); test: Inhibition of Mitogen-activated protein kinase 3 at 5 uM
Sequence of Mitogen-activated protein kinase 3 (Homo sapiens) (P27361 whole entry): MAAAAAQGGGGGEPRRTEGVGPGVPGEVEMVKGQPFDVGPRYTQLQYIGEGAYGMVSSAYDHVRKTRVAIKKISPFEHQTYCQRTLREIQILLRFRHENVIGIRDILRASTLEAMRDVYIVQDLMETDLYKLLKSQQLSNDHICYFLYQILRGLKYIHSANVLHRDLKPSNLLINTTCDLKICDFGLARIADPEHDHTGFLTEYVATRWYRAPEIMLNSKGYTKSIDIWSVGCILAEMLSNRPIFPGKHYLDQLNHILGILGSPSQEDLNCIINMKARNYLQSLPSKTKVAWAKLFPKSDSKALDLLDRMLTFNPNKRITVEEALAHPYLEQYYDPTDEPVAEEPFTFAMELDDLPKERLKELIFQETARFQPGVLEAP

Mus musculus [26] = test: Effect in murine model of arthritis onset in mice immunized with bovine type II collagen at 3 mg/kg; Histopathology in interstitial edema; type: functional
Mus musculus [27] = test: Percentage inhibition of LPS-induced TNF-alpha production in mice at 10 mg/kg peroral dose; type: functional; conditions: route oral
Mus musculus [28] = test: Effect on LPS-induced TNF-alpha production in mice at 50 mg/kg peroral dose; type: functional; conditions: route oral
Mus musculus [29] = test: Effect in murine model of arthritis onset in mice immunized with bovine type II collagen at 3 mg/kg; Histopathology in inflammatory cell; type: functional
Mus musculus [30] = test: Effect in murine model of arthritis onset in mice immunized with bovine type II collagen at 30 mg/kg; Histopathology in inflammatory cell; type: functional
[31] = target: Tyrosine-protein kinase ABL (Homo sapiens) (UniProt P00519+P42684); test: Inhibition of Abl tyrosine kinase at 5 uM; type: protein assay
Mus musculus [32] = test: Effect in murine model of arthritis onset in mice immunized with bovine type II collagen at 30 mg/kg; Number of paws affected; type: functional
Mus musculus [33] = test: Percent inhibition of TNF-alpha-induced IL-6 production at 100 mg/kg peroral dose in mice; type: functional; conditions: route oral
Mus musculus [34] = test: Effect in murine model of arthritis onset in mice immunized with bovine type II collagen at 50 mg/kg; Histopathology in inflammatory cell; type: functional
Mus musculus [35] = organism: Mus musculus; test: animal or person; conditions: po, read-out: Inhibition
Mus musculus [36] = test: Effect on LPS-induced TNF-alpha production in mice at 30 mg/kg peroral dose; type: functional; conditions: route oral
Mus musculus [37] = organism: Mus musculus; test: animal or person; conditions: po, read-out: Inhibition; remark: listed apart in the source
Mus musculus [38] = organism: Mus musculus; test: animal or person; conditions: po, read-out: Inhibition; remark: listed apart in the source
Mus musculus [39] = test: Effect in murine model of arthritis onset in mice immunized with bovine type II collagen at 50 mg/kg; Histopathology in interstitial edema; type: functional
Mus musculus [40] = test: Effect in murine model of arthritis onset in mice immunized with bovine type II collagen at 50 mg/kg; Number of paws affected; type: functional
Mus musculus [41] = test: Percent inhibition of TNF-alpha-induced IL-6 production at 10 mg/kg peroral dose in mice; type: functional; conditions: route oral

Sequence of Mitogen-activated protein kinase 14 (Q16539 whole entry): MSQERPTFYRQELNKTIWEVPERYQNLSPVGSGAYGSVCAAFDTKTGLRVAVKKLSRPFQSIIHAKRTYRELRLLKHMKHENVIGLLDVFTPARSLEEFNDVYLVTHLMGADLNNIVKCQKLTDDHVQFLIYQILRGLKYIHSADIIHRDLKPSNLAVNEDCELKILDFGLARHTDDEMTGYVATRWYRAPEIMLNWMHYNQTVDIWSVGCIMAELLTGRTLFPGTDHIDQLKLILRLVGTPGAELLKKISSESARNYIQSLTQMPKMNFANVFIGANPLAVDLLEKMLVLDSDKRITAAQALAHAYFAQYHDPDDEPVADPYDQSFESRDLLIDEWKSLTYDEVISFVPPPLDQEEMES

- IC50 [1]: 69 nM
- IC50 (SW1353): 1060 nM
Compound: CCC(=O)Nc1ccc(Oc2ccc(NC(=O)Nc3cc(C(C)(C)C)nn3C)cc2)cc1

- IC50 [1]: 57 nM
- IC50 (SW1353): 235 nM
Compound: CCCOc1ccc(Sc2ccc(NC(=O)Nc3cc(C(C)(C)C)nn3C)cc2)cc1

- IC50 [1]: 235 nM
Compound: CC(=O)Nc1ccc(Oc2ccc(NC(=O)Nc3cc(C(C)(C)C)nn3C)cc2)cc1

- IC50 [1]: 200 nM
- IC50 (SW1353): > 2500 nM
Compound: Cn1nc(C(C)(C)C)cc1NC(=O)Nc1ccc(Cc2ccc(NC(=O)CCC(=O)O)cc2)cc1

- IC50 [1]: 35 nM
- IC50 (SW1353): 1100 nM
Compound: Cn1nc(C(C)(C)C)cc1NC(=O)Nc1ccc(Sc2ccc(O)cc2)cc1

- IC50 [1]: 140 nM
Compound: Cn1nc(C(C)(C)C)cc1NC(=O)Nc1ccc(SCc2ccncc2)cc1

- solubility [2]: 77 µg/mL (≈ 171 µM)
- solubility [5]: 95 µg/mL (≈ 210 µM)
- IC50 [1]: 33 nM
- IC50 (SW1353): 87 nM
Compound: CCOC(=O)Nc1ccc(Oc2ccc(NC(=O)Nc3cc(C(C)(C)C)nn3C)cc2)cc1
- inhibition in vivo at 50 mg/kg (Mus musculus [9]): 16%

- IC50 [1]: 183 nM
Compound: Cn1nc(C(C)(C)C)cc1NC(=O)Nc1ccc(Oc2ccc(C(C)(C)C)cc2)cc1

- IC50 [1]: 54 nM
- IC50 (SW1353): 162 nM
Compound: CC(C)OC(=O)Nc1ccc(Oc2ccc(NC(=O)Nc3cc(C(C)(C)C)nn3C)cc2)cc1

- IC50 [1]: 430 nM
Compound: Cn1nc(C(C)(C)C)cc1NC(=O)Nc1ccc(CCc2ccncc2)cc1

- IC50 [1]: 37 nM
- IC50 (SW1353): 170 nM
Compound: CC(C)CC(=O)Nc1ccc(Cc2ccc(NC(=O)Nc3cc(C(C)(C)C)nn3C)cc2)cc1

- solubility [2]: 5160 µg/mL (≈ 13000 µM)
- solubility [5]: 322 µg/mL (≈ 814 µM)
- IC50 [1]: 44 nM
- IC50 (SW1353): 584 nM
Compound: Cn1nc(C(C)(C)C)cc1NC(=O)Nc1ccc(CSc2ccncc2)cc1
- inhibition in vivo at 25 mg/kg (Mus musculus [6]): 22%
- inhibition in vivo at 50 mg/kg (Mus musculus [9]): < 64%
- inhibition in vivo at 10 mg/kg (Mus musculus [41]): -15%

Second part, the compound before the results:

Compound: CCCCOc1ccc(Sc2ccc(NC(=O)Nc3cc(C(C)(C)C)nn3C)cc2)cc1
- IC50 [1]: 69 nM
- IC50 (SW1353): > 2500 nM

Compound: Cc1ccc(Oc2ccc(NC(=O)Nc3cc(C(C)(C)C)nn3C)cc2)cc1
- IC50 [1]: 160 nM

Compound: Cn1nc(C(C)(C)C)cc1NC(=O)Nc1ccc(Oc2ccc(OCc3ccccc3)cc2)cc1
- IC50 [1]: 110 nM

Compound: Cn1nc(C(C)(C)C)cc1NC(=O)Nc1ccc(OCc2ccncc2)cc1
- IC50 [1]: 260 nM

Compound: Cn1nc(C(C)(C)C)cc1NC(=O)Nc1ccc(Cc2ccncc2)cc1
- solubility [2]: 2000 µg/mL (≈ 5500 µM)
- inhibition [3]: 20%
- Activity (Mus musculus [4]): 19.8 ng/mL
- solubility [5]: 50 µg/mL (≈ 138 µM)
- inhibition in vivo at 25 mg/kg (Mus musculus [6]): 60%
- IC50 [7]: 110 nM
- Activity (Mus musculus [8]): 46.7 ng/mL
- inhibition in vivo at 50 mg/kg (Mus musculus [9]): 84%
- inhibition [10]: 2%
- inhibition [11]: 21%
- Activity (Mus musculus [12]): 0.3
- inhibition in vivo at 20 mg/kg (Mus musculus [13]): < 47.1%
- Activity (Mus musculus [14]): 1.9
- Activity (Mus musculus [15]): 1.4
- inhibition [16]: 8%
- inhibition [17]: 5%
- IC50 [18]: 4.2 nM
- IC50 (SW1353): 323 nM
- Activity (Mus musculus [19]): 0.78
- inhibition [20]: 0%
- inhibition in vivo at 50 mg/kg (Mus musculus [21]): < 86.5%
- inhibition [22]: 7%
- Activity (Mus musculus [23]): 0.2
- inhibition [24]: 17%
- inhibition [25]: 8%
- IO (Mus musculus [26]): 0.33
- inhibition in vivo at 10 mg/kg (Mus musculus [27]): -24.5%
- Activity (Mus musculus [28]): 5.1 ng/mL
- IC (Mus musculus [29]): 0.8
- Activity (Mus musculus [30]): 0.38
- inhibition [31]: 3%
- Activity (Mus musculus [32]): 0.7

Compound: Cn1nc(C(C)(C)C)cc1NC(=O)Nc1ccc(Sc2ccncc2)cc1
- solubility [2]: 1660 µg/mL (≈ 4350 µM)
- solubility [5]: 655 µg/mL (≈ 1720 µM)
- inhibition in vivo at 50 mg/kg (Mus musculus [9]): < 77%
- inhibition in vivo at 100 mg/kg (Mus musculus [33]): < 90%
- IC50 [1]: 13 nM
- IC50 (SW1353): 95 nM

Compound: C[S+]([O-])c1ccc(-c2nc(-c3ccc(F)cc3)c(-c3ccncc3)[nH]2)cc1 (stereo not given) [SB-203580]
- Activity (Mus musculus [8]): 38 ng/mL
- IC (Mus musculus [34]): 0.63
- inhibition in vivo at 30 mg/kg (Mus musculus [35]): < 65.4%
- Activity (Mus musculus [36]): 13 ng/mL
- inhibition in vivo at 100 mg/kg (Mus musculus [37]): 80%
- inhibition in vivo at 10 mg/kg (Mus musculus [38]): -1.4%
- IO (Mus musculus [39]): 0.25
- Activity (Mus musculus [40]): 1

Compound: Cn1nc(C(C)(C)C)cc1NC(=O)Nc1ccc(Oc2ccccc2)cc1
- IC50 [1]: 270 nM

Compound: CCC(=O)Nc1ccc(Cc2ccc(NC(=O)Nc3cc(C(C)(C)C)nn3C)cc2)cc1
- IC50 [1]: 38 nM
- IC50 (SW1353): 1750 nM

Compound: CC(=O)Nc1ccc(Cc2ccc(NC(=O)Nc3cc(C(C)(C)C)nn3C)cc2)cc1
- IC50 [1]: 70 nM

Compound: Cn1nc(C(C)(C)C)cc1NC(=O)Nc1ccc(Cc2ccc(NC(=O)OC(C)(C)C)cc2)cc1
- IC50 [1]: 87 nM
- IC50 (SW1353): 57 nM

Compound: Cn1nc(C(C)(C)C)cc1NC(=O)Nc1ccc(Cc2ccc(N)cc2)cc1
- IC50 [1]: 290 nM

Compound: Cn1nc(C(C)(C)C)cc1NC(=O)Nc1ccc(Oc2ccc(N)cc2)cc1
- IC50 [1]: 310 nM

Compound: CC(C)CC(=O)Nc1ccc(Oc2ccc(NC(=O)Nc3cc(C(C)(C)C)nn3C)cc2)cc1
- IC50 [1]: 45 nM
- IC50 (SW1353): 313 nM

Compound: Cn1nc(C(C)(C)C)cc1NC(=O)Nc1ccc(Nc2ccncc2)cc1
- IC50 [1]: 420 nM
